From patent US20060069132A1, “Azolecarboxamide herbicides” (priority 2004, published 2006)

Assays:
Test in all cases: Test C postemergence herbicide test
downy bromegrass = format: in vivo, Bromus tectorum
Procedure, shortened: (§1)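 Plants were grown to the 1- to 4-leaf stage (2–18 cm) and then treated postemergence, or grown to the 2-leaf stage for the flooded paddy test. They were held in a greenhouse for 12 to 14 days and then scored by eye against controls, where 0 is no effect and 100 is complete control.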

green foxtail = format: in vivo, Setaria viridis
Procedure, shortened: as §1

Italian ryegrass = format: in vivo, Lolium multiflorum
Procedure, shortened: as §1

[1] = Postemergence, 250 g ai/ha, scale 0 to 100, 0 no effect, 100 complete control
[2] = Postemergence, 500 g ai/ha, scale 0 to 100, 0 no effect, 100 complete control
[3] = postemergence, 125 g ai/ha, scale 0 to 100
[4] = postemergence, 62 g ai/ha, scale 0 to 100

Structure (SMILES)	Plant response rating, Bromegrass, Downy (downy bromegrass; [1])	Plant response rating, Bromegrass, Downy (downy bromegrass; [2])	Plant response rating, Bromegrass, Downy (downy bromegrass; [3])	Plant response rating, Bromegrass, Downy (downy bromegrass; [4])	Plant response rating, Foxtail, Green (green foxtail; [1])	Plant response rating, Foxtail, Green (green foxtail; [2])	Plant response rating, Foxtail, Green (green foxtail; [3])	Plant response rating, Foxtail, Green (green foxtail; [4])	Plant response rating, Ryegrass, Italian (Italian ryegrass; [1])	Plant response rating, Ryegrass, Italian (Italian ryegrass; [2])	Plant response rating, Ryegrass, Italian (Italian ryegrass; [3])	Plant response rating, Ryegrass, Italian (Italian ryegrass; [4])	Plant response rating, Bromegrass, Downy (downy bromegrass; postemergence, 31 g ai/ha, scale 0 to 100)
CCNC(=O)c1ccc(F)c(NC(=O)c2c3c(nn2CC)C(C)(C)CC3)c1 [Compound 353]	30	35	20	10	20	30	20	15	15	20	15	10	
CCOC(=O)c1cccc(NC(=O)c2nn(C(C)(C)CC)nc2CC)c1 [Compound 375]	60		60	60	65		65	50			65	65	40
